Data: patent US20020187126A1, “Methods for viral oncoapoptosis in cancer therapy” (priority 2001, published 2002)

Columns and labels:
primary MEF cells = test: Phase-contrast microscopy and Hoechst staining of infected or treated MEF cells; type: cell-based, mouse; conditions: Hoechst dye, 15 h
Text: Cells and viruses. All cells were maintained in Dulbecco's modified Eagle's medium (DMEM) containing 5% fetal bovine serum. Human larynx epidermoid carcinoma HEp-2 (Moore, Cancer Res.1955, 15:598-605), epithelial cervical carcinoma HeLa S3 (Puck, et al, J. Exp. Med.1956, 103:273-284, osteosarcoma 143B (Post and Roizman, Cell 1981, 25:227-32), and African green monkey kidney Vero (Yasumura and Kawakita, Nippon Rinsho 1963, 21:1209) cells were obtained from the American Type Culture Collection (Rockville, Md. V2.2 is a derivative Vero cell line, which carries a stably integrated copy of the ICP27 gene (Rice and Knipe, J Virol. 1990, 64:1704-15). Adenovirus type 5 transformed human primary embryonal kidney 293 (Graham et al., J Gen Virol. 1977, 36:59-74) and SV40 T antigen expressing 293T cells were obtained from the ATCC. […]
To assess whether rdHSV-1 triggers apoptosis in infected MEF, cell morphologies were documented by phase-contrast microscopy and condensed nuclei were visualized following staining with a fluorescent Hoechst dye. […] Cells were analyzed 15 h post-infection. […] Few, if any, cells with condensed nuclei were detected following infection with either rdHSV-1 strain. […]

[1] = test system: primary human foreskin fibroblast (HFF) cells; test: DNA laddering by ethidium bromide staining in HFF cells; type: cell-based; conditions: low molecular weight DNA
Description: (§1) Biochemical induction of apoptosis. Cell apoptosis was induced by the addition of staurosporine (Calbiochem, San Diego, Calif.) to the medium at a final concentration of either 1 or 2 μM. Cells were maintained in the presence of staurosporine for 24 h. TNF (Sigma) was added directly to medium at a final concentration of 10 ng/ml in combination with cycloheximide (Sigma) at a final concentration of 10 μg/ml for 24 h.
DNA laddering by ethidium bromide staining. Low molecular weight DNA was isolated from cells as described (Koyama and Miwa, J. Virol. 1997, 71:2567; Aubert and Blaho, J. Virol. 1999, 73:2803). The DNA samples were subjected to electropheresis in a horizontal 1.5% agarose gel, followed by staining with 10 μg/ml ethidium bromide. DNA was visualilzed by UV light transillumination and photographed with Polaroid 67 film.
(§2) The transformed cell lines we analyzed above were of human origin. Thus, it was necessary to confirm our MEF cell results using a primary human cell line. We assessed the p53 status, the susceptibility of rdHSV-1 infection, and the ability to undergo apoptosis of primary human foreskin fibroblast (HFF) cells by immunoblotting, Hoechst staining, and DNA laddering assays. […] Finally, we stained the infected and treated HFF cells with Hoechst DNA dye and visualized cellular and nuclear morphologies by fluorescence and phase-contrast microscopy. […]

[2] = test system: primary human foreskin fibroblast (HFF) cells; test: Hoechst staining, fluorescence and phase-contrast microscopy of HFF cells; type: cell-based; conditions: Hoechst DNA dye
Description: as §1
Microscopic analyses and computer graphics. Infected cell phenotypes were documented by phase-contrast light microscopy using an Olympus CK2/PM-10AK3 system with an attached 35 mm camera. For analyses of chromatin condensation, cells were grown and infected (as described above) in a 35-mm plate. At 24 hours post infection, the cells were incubated with the DNA dye Hoechst 33258 (Sigma) at a final concentration of 5 μg/ml in PBS for 15 minutes at 37° C. […]
as §2, with “Thus, it was necessary to confirm our MEF cell results using a primary human cell line.” left out

293 cells = test: Immunoblots for PARP, caspase-3 and p53 in infected or treated 293 cells; type: cell-based, human
Description: Cells and viruses. All cells were maintained in Dulbecco's modified Eagle's medium (DMEM) containing 5% fetal bovine serum. […]
Extraction of cells and denaturing gel electrophoresis. Whole extracts of cells were obtained as previously described (Aubert and Blaho, J Virol. 1999, 73:2803-2813; Aubert et al., J. Virol. 1999, 73:10359-70) Protein concentrations were measured using a modified Bradford assay (Biorad) as recommended by the vendor. […]
The results above indicate that cells whose p53 is undermodified are susceptible to apoptosis triggered by rdHSV-1 while those which accumulate phosphorylated p53 are resistant. To confirm the prediction that the amount of phosphorylated p53 present in a given cell is an accurate indicator of whether the cell will be killed by an rdHSV-1, 293 cells were analyzed. […]

Compound: CN[C@@H]1C[C@H]2O[C@@](C)([C@@H]1OC)n1c3ccccc3c3c4c(c5c6ccccc6n2c5c31)C(=O)NC4 [staurosporine]
- cells with condensed nuclei / chromatin (primary MEF cells): significant number of small apoptotic cells which contained condensed chromatin
- DNA laddering / fragmentation [1]: DNA fragmentation that migrated as a smear
- condensed chromatin / features of apoptosis [2]: showed features indicative of apoptosis
- signs of apoptosis (PARP processing) (293 cells; environmental stimulators, double dose of STS): no signs of apoptosis were detected
- apoptosis (PARP and caspase-3 processing) (293 cells; presence or absence of CHX): did not undergo apoptosis
